Source: article PMC10176470, “Engaging a Non-catalytic Cysteine Residue Drives Potent and Selective Inhibition of Caspase-6” (Journal of the American Chemical Society, 2023)
Read-outs that look alike come from different tables or passages of the source.

Experiments:
Type in all cases: cell-based
[1] = biological target: proteins of HEK293T cells transiently overexpressing caspase-6 (Homo sapiens, UniProt P21964); conditions: Probe; protein COMT P21964
[2] = biological target: proteins of HEK293T cells transiently overexpressing caspase-6 (Homo sapiens, UniProt P55072); conditions: exp_ref Probe; protein VCP (P55072); analysis C6
[3] = biological target: T1, proteins of HEK293T cells transiently overexpressing caspase-6 (Homo sapiens, UniProt P22234); conditions: protein PAICS (P22234)
T1 sequence (P22234 1-425): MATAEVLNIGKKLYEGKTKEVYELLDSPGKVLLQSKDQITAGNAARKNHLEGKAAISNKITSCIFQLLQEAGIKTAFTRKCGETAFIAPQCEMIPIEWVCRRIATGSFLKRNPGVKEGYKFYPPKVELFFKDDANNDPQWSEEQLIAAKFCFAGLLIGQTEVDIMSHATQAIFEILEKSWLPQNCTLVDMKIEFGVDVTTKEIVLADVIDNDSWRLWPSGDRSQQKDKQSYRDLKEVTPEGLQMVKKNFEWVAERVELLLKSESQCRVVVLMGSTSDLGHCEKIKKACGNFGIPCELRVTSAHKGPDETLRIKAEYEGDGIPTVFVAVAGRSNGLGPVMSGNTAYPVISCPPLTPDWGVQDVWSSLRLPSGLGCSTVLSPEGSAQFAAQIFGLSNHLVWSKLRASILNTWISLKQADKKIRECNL

[4] = biological target: T2, proteins of HEK293T cells transiently overexpressing caspase-6 (Homo sapiens, UniProt O95197); conditions: protein RTN3 (O95197)
T2 sequence (O95197 1-1032): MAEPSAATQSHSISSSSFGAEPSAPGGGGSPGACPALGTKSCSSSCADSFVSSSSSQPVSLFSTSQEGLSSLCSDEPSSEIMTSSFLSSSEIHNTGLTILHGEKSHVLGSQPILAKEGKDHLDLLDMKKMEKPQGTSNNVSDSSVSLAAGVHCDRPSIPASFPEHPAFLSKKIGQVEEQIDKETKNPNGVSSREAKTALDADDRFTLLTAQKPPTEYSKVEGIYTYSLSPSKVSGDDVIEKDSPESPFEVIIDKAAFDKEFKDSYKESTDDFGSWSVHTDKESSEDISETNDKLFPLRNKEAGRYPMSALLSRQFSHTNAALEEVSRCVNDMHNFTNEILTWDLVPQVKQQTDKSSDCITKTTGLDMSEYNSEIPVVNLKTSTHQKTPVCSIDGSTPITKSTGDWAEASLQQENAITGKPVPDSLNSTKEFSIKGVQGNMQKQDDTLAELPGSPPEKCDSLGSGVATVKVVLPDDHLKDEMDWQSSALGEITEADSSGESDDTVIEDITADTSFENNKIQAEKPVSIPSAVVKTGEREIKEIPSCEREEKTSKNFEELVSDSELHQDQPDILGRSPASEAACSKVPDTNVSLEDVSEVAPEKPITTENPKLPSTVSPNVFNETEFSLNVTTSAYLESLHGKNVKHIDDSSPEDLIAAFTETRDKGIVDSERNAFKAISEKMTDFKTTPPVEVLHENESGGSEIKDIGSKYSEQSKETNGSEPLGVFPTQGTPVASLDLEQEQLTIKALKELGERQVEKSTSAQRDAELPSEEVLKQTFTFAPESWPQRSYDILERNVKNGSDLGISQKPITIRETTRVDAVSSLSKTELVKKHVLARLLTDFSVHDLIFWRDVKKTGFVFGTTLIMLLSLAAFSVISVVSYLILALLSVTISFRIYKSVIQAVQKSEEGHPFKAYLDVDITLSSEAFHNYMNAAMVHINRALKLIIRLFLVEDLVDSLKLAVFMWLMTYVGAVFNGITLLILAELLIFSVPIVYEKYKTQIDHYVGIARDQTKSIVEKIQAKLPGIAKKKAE

[5] = biological target: T3, proteins of HEK293T cells transiently overexpressing caspase-6 (Homo sapiens, UniProt Q14697); conditions: protein GANAB (Q14697)
T3 sequence (Q14697 29-944): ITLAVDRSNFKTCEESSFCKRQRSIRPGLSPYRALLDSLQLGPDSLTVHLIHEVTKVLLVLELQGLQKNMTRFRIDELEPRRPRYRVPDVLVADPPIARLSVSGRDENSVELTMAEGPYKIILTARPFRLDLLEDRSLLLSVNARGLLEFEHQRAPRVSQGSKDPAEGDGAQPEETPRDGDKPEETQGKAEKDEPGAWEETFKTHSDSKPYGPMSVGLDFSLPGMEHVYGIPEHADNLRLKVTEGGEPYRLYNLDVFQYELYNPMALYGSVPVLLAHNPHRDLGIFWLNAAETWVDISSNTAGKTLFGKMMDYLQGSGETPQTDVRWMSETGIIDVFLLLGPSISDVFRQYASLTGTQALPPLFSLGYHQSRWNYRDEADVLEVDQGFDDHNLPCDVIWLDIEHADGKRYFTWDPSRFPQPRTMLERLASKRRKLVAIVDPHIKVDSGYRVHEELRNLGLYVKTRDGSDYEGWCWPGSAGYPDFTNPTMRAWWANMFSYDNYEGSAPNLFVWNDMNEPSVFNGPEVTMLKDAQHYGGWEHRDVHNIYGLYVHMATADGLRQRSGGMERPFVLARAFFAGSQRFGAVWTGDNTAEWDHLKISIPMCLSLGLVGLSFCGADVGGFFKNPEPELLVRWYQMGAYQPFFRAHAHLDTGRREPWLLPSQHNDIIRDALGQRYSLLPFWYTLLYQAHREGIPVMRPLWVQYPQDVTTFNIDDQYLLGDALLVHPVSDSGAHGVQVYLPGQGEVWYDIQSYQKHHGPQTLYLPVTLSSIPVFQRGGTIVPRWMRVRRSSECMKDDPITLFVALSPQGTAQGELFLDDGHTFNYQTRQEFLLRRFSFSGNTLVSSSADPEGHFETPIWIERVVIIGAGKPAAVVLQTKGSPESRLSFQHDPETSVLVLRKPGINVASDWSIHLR

[6] = biological target: proteins of HEK293T cells transiently overexpressing caspase-6 (Homo sapiens, UniProt P29692); conditions: exp_ref Probe; protein EEF1D (P29692); analysis C6
[7] = biological target: proteins of HEK293T cells transiently overexpressing caspase-6 (Homo sapiens, UniProt P37837); conditions: Probe; protein TALDO1 P37837
Sequence of proteins of HEK293T cells transiently overexpressing caspase-6 (Homo sapiens, UniProt P37837) (P37837 whole entry): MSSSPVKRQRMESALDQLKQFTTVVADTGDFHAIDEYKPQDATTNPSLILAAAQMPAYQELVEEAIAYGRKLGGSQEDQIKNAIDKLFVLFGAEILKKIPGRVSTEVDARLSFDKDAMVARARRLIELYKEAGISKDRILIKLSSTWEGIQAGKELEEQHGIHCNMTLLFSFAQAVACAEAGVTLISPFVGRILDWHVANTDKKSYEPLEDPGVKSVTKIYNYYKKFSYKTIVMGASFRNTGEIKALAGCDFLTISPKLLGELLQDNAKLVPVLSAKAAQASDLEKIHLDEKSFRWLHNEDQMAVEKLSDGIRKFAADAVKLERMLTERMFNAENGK

Sequence of proteins of HEK293T cells transiently overexpressing caspase-6 (Homo sapiens, UniProt P55072) (P55072 whole entry): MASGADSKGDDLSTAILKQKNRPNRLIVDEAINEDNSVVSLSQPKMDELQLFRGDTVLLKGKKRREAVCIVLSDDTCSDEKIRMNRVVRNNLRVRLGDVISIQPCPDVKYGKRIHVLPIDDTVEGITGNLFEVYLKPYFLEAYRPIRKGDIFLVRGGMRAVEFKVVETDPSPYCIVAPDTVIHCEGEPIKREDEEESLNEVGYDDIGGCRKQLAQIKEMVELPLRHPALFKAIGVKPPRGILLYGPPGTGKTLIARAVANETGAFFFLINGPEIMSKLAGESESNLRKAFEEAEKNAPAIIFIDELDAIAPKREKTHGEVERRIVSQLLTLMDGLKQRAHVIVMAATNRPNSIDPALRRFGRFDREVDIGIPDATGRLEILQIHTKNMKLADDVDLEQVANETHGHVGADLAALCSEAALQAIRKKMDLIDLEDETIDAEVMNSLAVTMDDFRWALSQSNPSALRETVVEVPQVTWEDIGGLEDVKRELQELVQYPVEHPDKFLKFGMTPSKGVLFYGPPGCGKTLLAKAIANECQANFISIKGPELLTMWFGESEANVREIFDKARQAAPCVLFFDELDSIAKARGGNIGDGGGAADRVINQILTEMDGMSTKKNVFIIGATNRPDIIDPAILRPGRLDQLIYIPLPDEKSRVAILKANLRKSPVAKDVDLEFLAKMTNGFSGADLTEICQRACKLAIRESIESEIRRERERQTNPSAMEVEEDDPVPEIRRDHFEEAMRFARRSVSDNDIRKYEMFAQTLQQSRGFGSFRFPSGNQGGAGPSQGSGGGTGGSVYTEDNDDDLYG
Sequence of proteins of HEK293T cells transiently overexpressing caspase-6 (Homo sapiens, UniProt P21964) (P21964 whole entry): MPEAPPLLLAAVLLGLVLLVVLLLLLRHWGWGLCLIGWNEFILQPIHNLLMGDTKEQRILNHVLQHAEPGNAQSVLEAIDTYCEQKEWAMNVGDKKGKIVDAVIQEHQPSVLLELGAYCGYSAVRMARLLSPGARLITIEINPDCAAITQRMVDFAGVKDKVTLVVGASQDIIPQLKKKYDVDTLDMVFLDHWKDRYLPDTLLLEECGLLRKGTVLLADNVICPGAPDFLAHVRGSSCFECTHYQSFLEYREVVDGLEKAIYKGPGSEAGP
Sequence of proteins of HEK293T cells transiently overexpressing caspase-6 (Homo sapiens, UniProt P29692) (P29692 whole entry): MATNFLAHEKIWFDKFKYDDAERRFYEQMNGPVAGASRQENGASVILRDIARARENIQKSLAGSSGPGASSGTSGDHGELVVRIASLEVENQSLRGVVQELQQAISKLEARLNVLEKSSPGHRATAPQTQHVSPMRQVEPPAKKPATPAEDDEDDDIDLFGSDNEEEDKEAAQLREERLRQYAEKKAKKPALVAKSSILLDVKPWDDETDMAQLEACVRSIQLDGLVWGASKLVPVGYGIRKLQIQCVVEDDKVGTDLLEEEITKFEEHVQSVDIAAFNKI

Structure (SMILES): C#CCOc1ccc([C@@H]2C[C@@H](C(=O)Nc3ccc(OC(F)(F)F)cc3)CN(S(=O)(=O)C=C)C2)cc1 (relative stereo) [13-t]
- enrich.exp.med [1]: -3.436
- enrich.exp.med [2]: -0.3231
- enrich.exp.med ([3]; exp_ref Probe, analysis C6): 0.8585
- enrich.exp.med.lin [3]: 1.813
- enrich.exp.med.log2 [3]: 0.8585
- enrich.exp.med.lin [4]: 5.629
- enrich.exp.med.log2 [4]: 2.493
- enrich.exp.med.lin ([4]; Expt Probe, analysis C6): 5.629
- enrich.exp.med.log2 ([4]; Expt Probe, analysis C6): 2.493
- enrich.exp.med ([4]; exp_ref Probe, analysis C6): 2.493
- enrich.exp.med ([5]; exp_ref Probe, analysis C6): -0.2903
- enrich.exp.med.lin [5]: 0.8177
- enrich.exp.med.log2 [5]: -0.2903
- enrich.exp.med [6]: 0.2193
- enrich.exp.med [7]: -1.23
